Data on 29 substances can be found in patent US20200407717A1, “METHODS OF MODULATING ANTISENSE ACTIVITY” (Ionis Pharmaceuticals, Inc., priority 2018, published 2020).

pEC50: −log10 of the molar value. In the oligonucleotide strings, read from the 5' end, every base follows the letter of its sugar. An asterisk marks phosphorothioate; unmarked linkages are phosphodiester. Other units and linkages are bracketed, terminal groups are in braces. A string of capitals states the bases alone. e = 2'-O-(2-methoxyethyl) (MOE); k = constrained ethyl (cEt); [5mC] = 5-methylcytosine; d = 2'-deoxy (DNA); f = 2'-fluoro

Data set [1] concerns the target EGFR (Homo sapiens, UniProt P00533). In words: Competitive NanoBRET binding assay. More on the design: made in house; host or cells: HEK293 cells. To be noted: Competitive BRET vs 10 nM AF594-labeled 766636; Table 6. The procedure: NanoBRET (bioluminescence resonance energy transfer) binding assays were performed as described in Vickers and Crooke. PLOS One, 11(8), (2016). An EGFR NLuc construct was prepared by first amplifying human EGFR from the full length cDNA clone (Origene RC217223) with forward PCR primer 5′-[…]-3′ (SEQ ID NO: 1) and reverse PCR primer 5′-[…] (SEQ ID NO: 2). The amplified product was ligated into the NheI and XhoI sites of the NanoLuc expression vector pFC32K Nluc CMV-Neo (Promega). Protein was expressed in HEK293 cells and isolated using Protein G magnetic beads. For competitive BRET, the Alexafluor594-labeled modified oligonucleotide 766636 was diluted into water in opaque white 96-well plates at 10 nM and competed with 0.1-10,000 nM of unlabeled modified oligonucleotide. […] of 2× binding buffer containing […] (relative luminescence units) beads/well was added and plates were shaken for 10 minutes at room temperature. Nanoluciferase activity and BRET were measured in a Glowmax Discover plate reader and EC50 values, shown in the tables below, were calculated using GraphPad Prism. For direct BRET, Alexafluor594 modified nucleotides were diluted at 0.1-10,000 nM and experiments were performed as described above.

The subject of data set [2] is EGF-EGFR signaling. In words: EGFR signaling western blot (p-EGFR, p-ERK), A431 cells. The format is cell-based. As to conditions: 2 μM for 16 hours. As to the method:
In order to test the effects of a PS-ASO on EGFR signaling, A431 cells were incubated with compound no. 116847 or no PS-ASO compound for 16 hours. All cells were then treated with EGF prior to being subjected to the pulse-chase protocol described above. Cell lysates were run on a SDS-PAGE gel and analyzed by sequential western blot for phosphorylated EGFR (P-EGFR), total EGFR (T-EGFR), phosphorylated ERK (P-ERK), and total ERK (T-ERK) using the antibodies described above for EGFR, 4370 for P-ERK (Cell Signaling Technology), and 4695 for T-ERK (Cell Signaling Technology).
110080, 25690, 25699, 395251, or 395254 at 2 μM for 16 hours prior to carrying out the pulse-chase experiment described above.

“AACGAGGTACTGTGTAAGTC (sugars from the 5' end f5 d10 f5, all phosphorothioate, methylation of C and T or U not given here) [compound 1147369]” showed a pEC50 in data set [1] of 5.58. The same measure, in the same setting: to “AAGCAGTTGGTGGTGC (sugars from the 5' end k3 d10 k3, all phosphorothioate, methylation of C not given here) [compound 999005]” belongs 7.41; to “AATCTCCTTGCTGTATTTGT (sugars from the 5' end f5 d10 f5, all phosphorothioate, methylation of C and T or U not given here) [compound 1147334, 5-10-5 2′-F gapmer, phosphorothioate]”, 5.36; to “ACACGGTATTGCCCTTGAAA (sugars from the 5' end e5 d10 e5, all phosphorothioate, methylation of C not given here) [compound 110128, 5-10-5 2′-MOE gapmer, phosphorothioate]”, 5.64. Still for that read-out and setting: to “ACCCAATTCAGAAGGAAGGA (sugars from the 5' end e5 d10 e5, all phosphorothioate, methylation of C not given here) [compound 476366, 5-10-5 2′-MOE gapmer, phosphorothioate]” belongs 5.65; to “AGGATGCATTGCTGAC (sugars from the 5' end k3 d10 k3, all phosphorothioate, methylation of C not given here) [compound 999006]”, 5.77. “AGTTGTCATGGATGAC (sugars from the 5' end k3 d10 k3, all phosphorothioate, methylation of C not given here) [compound 999003]” gave a negative-log EC50 (pEC50) in data set [1] of 5.64.

In the case of “ATATTGCATCAGATCTCAAT (sugars from the 5' end f5 d10 f5, all phosphorothioate, methylation of C and T or U not given here) [compound 1147370]”, the pEC50 in data set [1] is 5.33. On the same count and under the same terms, then “AUAAUCTTCCAGGGCCACAA (sugars from the 5' end f5 d10 f5, all phosphorothioate, methylation of C not given here) [compound 1147360, 5-10-5 2′-F gapmer, phosphorothioate]”, with 6.97. Regarding “AesGesTes^mCesTesAdsGdsGdsGdsTds^mCdsAds^mCdsAdsAdsTes^mCesTesGesGe (antisense eA*eG*eT*e[5mC]*eT*dA*dG*dG*dG*dT*d[5mC]*dA*d[5mC]*dA*dA*eT*e[5mC]*eT*eG*eG) [compound 25699]”, the EGFR signaling result in data set [2] is “not be impacted”.

In data set [1], “CAGCAGGCAACTGTCGCTGA (sugars from the 5' end e5 d10 e5, all phosphorothioate, methylation of C not given here) [compound 462026, 5-10-5 2′-MOE gapmer, phosphorothioate]” had a negative logarithm of the EC50 (pEC50) of 6.17. The same measure, in the same setting: to “CCTTCCACAATGCCAA (sugars from the 5' end k3 d10 k3, all phosphorothioate, methylation of C not given here) [compound 999002, 3-10-3 cEt gapmer, phosphorothioate]” belongs 6.20. In turn, “CCTTCCCTGAAGGTTCCTCC (sugars from the 5' end f5 d10 f5, all phosphorothioate, methylation of C and T or U not given here) [compound 804856, 5-10-5 2′-F gapmer, phosphorothioate]” showed a pEC50 in data set [1] of 5.56.

For the substance “CTAACATGCAATACTGCAGA (sugars from the 5' end e5 d10 e5, all phosphorothioate, methylation of C not given here) [compound 395257, 5-10-5 2′-MOE gapmer, phosphorothioate]”, the negative-log EC50 (pEC50) in data set [1] was 5.58. Still for that read-out and setting: to “CTGATGATCTGCAGGTTTTC (sugars from the 5' end f5 d10 f5, all phosphorothioate, methylation of C and T or U not given here) [compound 1147367]” belongs 6.94; to “CTTTCCAGAGGGGCCA (sugars from the 5' end k3 d10 k3, all phosphorothioate, methylation of C not given here) [compound 998998, 3-10-3 cEt gapmer, phosphorothioate]”, 8.14; to “CUGUUGGGATATTTTAGCCU (sugars from the 5' end f5 d10 f5, all phosphorothioate, methylation of C not given here) [compound 1147366]”, 7.06. “GACTGTGGTCATGAGC (sugars from the 5' end k3 d10 k3, all phosphorothioate, methylation of C not given here) [compound 999001]” gave a pEC50 in data set [1] of 5.63.

“GAGTCAGTATCCCAGTGTCT (sugars from the 5' end f5 d10 f5, all phosphorothioate, methylation of C and T or U not given here) [compound 1147314, 5-10-5 2′-F gapmer, phosphorothioate]” showed a pEC50 in data set [1] of 6.66.

As for “GGCCATCACGCCACAG (sugars from the 5' end k3 d10 k3, all phosphorothioate, methylation of C not given here) [compound 998997, 3-10-3 cEt gapmer, phosphorothioate]”, the pEC50 in data set [1] was 5.55. As to “TAAGTACTACTGGGCCATGG (sugars from the 5' end e5 d10 e5, all phosphorothioate, methylation of C not given here) [compound 324568, 5-10-5 2′-MOE gapmer, phosphorothioate]”, in data set [1], the pEC50 is 6.19. Same read-out and setting: to “TCCACAGTCTTCTGGG (sugars from the 5' end k3 d10 k3, all phosphorothioate, methylation of C not given here) [compound 998999, 3-10-3 cEt gapmer, phosphorothioate]” belongs 6.67. “TCGTCTGTGCATCTCTCCTG (sugars from the 5' end f5 d10 f5, all phosphorothioate, methylation of C and T or U not given here) [compound 1147291, 5-10-5 2′-F gapmer, phosphorothioate]” gave a negative-log EC50 (pEC50) in data set [1] of 6.78. The same measure, in the same setting: then “TGGCAGTGATGGCATG (sugars from the 5' end k3 d10 k3, all phosphorothioate, methylation of C not given here) [compound 999000]”, with 5.85; and “TGGTAATCCACTTTCAGAGG (sugars from the 5' end e5 d10 e5, all phosphorothioate, methylation of C not given here) [compound 404071, 5-10-5 2′-MOE gapmer, phosphorothioate]”, with 5.50.

“TTCTGGGCAGCCCCAC (sugars from the 5' end k3 d10 k3, all phosphorothioate, methylation of C not given here) [compound 998996, 3-10-3 cEt gapmer, phosphorothioate]” showed a pEC50 in data set [1] of 5.84.

“TTTTGGCAAAGTAATCGTCC (sugars from the 5' end e5 d10 e5, all phosphorothioate, methylation of C not given here) [compound 286529, 5-10-5 2′-MOE gapmer, phosphorothioate]” had a negative logarithm of the EC50 (pEC50) in data set [1] of 5.73. As to “^mCesGesTes^mCesGesTds^mCdsGdsTds^mCdsAdsTds^mCds^mCdsTds^mCesGesTes^mCes^mCe (antisense e[5mC]*eG*eT*e[5mC]*eG*dT*d[5mC]*dG*dT*d[5mC]*dA*dT*d[5mC]*d[5mC]*dT*e[5mC]*eG*eT*e[5mC]*e[5mC]) [compound 110080]”, the EGFR signaling entry in data set [2] is recorded as “not be impacted”. Still for that read-out and setting: then “^mCes^mCesAesGesGes^mCdsTdsGdsGdsTdsTdsAdsTdsGdsAds^mCesTes^mCesAesGe (antisense e[5mC]*e[5mC]*eA*eG*eG*d[5mC]*dT*dG*dG*dT*dT*dA*dT*dG*dA*e[5mC]*eT*e[5mC]*eA*eG) [compound 395251]”, with “not be impacted”.
